The results in this text go back to patent US6451801B1, “Compounds and methods for treatment of asthma, allergy and inflammatory disorders” (UCB, S.A., priority 1999, dated 2002).

SMILES strings stand for the structures.

For one experiment, the target named is T1, human cloned H1 receptor (Homo sapiens, UniProt P35367).
T1 construct: expressed in transfected cells; host or cells: CHO-K1
In words: CHO-K1 H1R binding assay. Conditions: 3H-pyrilamine 2 nM, CHO-K1 membranes, 3 hours at 37° C.; read-out: CHOH1 K1.

The target of a further experiment is T2, 15-lipoxygenase (Oryctolagus cuniculus, UniProt P12530).
T2 construct: from tissue; host or cells: rabbit peritoneal polymorphonuclear leukocytes
T2 sequence (P12530 1-663): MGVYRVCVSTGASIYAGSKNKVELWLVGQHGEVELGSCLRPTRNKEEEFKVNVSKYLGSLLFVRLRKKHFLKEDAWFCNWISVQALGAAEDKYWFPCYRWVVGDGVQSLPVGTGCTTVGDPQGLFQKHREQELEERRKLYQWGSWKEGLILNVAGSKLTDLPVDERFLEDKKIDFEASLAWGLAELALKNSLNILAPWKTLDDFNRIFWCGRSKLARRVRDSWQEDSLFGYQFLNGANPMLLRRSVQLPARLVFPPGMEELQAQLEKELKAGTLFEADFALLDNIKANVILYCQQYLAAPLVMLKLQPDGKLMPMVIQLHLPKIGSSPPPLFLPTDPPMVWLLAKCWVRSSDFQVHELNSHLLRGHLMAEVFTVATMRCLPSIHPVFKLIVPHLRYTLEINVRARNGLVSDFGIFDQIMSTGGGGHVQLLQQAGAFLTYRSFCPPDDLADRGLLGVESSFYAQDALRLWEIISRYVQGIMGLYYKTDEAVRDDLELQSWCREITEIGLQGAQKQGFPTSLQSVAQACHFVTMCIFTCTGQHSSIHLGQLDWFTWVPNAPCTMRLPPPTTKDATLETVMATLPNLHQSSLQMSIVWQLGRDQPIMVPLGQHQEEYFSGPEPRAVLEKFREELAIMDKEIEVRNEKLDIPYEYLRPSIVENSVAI
In words: Inhibition of 15-lipoxygenase (15-HETE production). In kind it is biochemical. Conditions: 15-lipoxygenase from rabbit peritoneal polymorphonuclear leukocytes, 5 min at 37° C. The text has this:
This assay examines the ability of a compound to inhibit production of 15-hydroxy-5, 8, 11, 13-eicosatetraenoic acid (15-HETE) via the action of 15-lipoxygenase on arachidonic acid. 15-lipoxygenase was purified from rabbit peritoneal polymorphonuclear leukocytes. The enzyme is responsible for the conversion of arachidonic acid (via oxygenation at carbon 15 of arachidonic acid) to 15-hydroperoxy-5, 8, 11, 13-eicosatetraenoic acid (15-HPETE), which then reduced to 15-hydroxy-5, 8, 11, 13-eicosatetraenoic acid (15-HETE).
The procedure for the assay is as follows. Arachidonic acid is co-incubated with […] for 5 min at 37° C. in the presence or absence of different concentrations of test compound (10^−8 to 10^−5 M). Production of 15-HETE in each sample is then measured by radioimmunoassay. The 15-HETE levels produced in the vehicle control sample are then compared to those in which the test compound has been added.

The subject of experiment [1] is histamine-induced bronchoconstriction. The experiment is described as follows: Antihistaminergic activity in vivo (histamine-induced bronchoconstriction). As to conditions: Cavia porcellus; guinea pig, oral, 5 mg/kg, 3 hrs. Here is the method: Male, Hartley guinea pigs are obtained from Charles River Labs at a body weight of 350 -400 grams. Inhibition of histamine activity is measured by the method of Konzett and Rössler (Naonyn-Schmiedebergs Arch. Exp. Path. Pharmakol. 195, 71-74 (1940). Anaethetized guinea pigs are subjected to artificial ventilation. The endotracheal pressure is recorded. Bronchoconstriction is induced by successive intravenous injections of histamine. The test compounds are administered orally in a 1% methocellulose suspension at set timepoints prior to the administration of histamine.
The results (Table 2) show the percent inhibition of histamine-induced bronchoconstriction by selected compounds at multiple time points post oral dosing. 50% inhibition or greater is considered significant.

The test system of a further experiment is 5-lipoxygenase. The experiment is described as follows: 5-Lipoxygenase inhibitory activity in vivo. Conditions: guinea pig, oral, 2 mg/kg, 1 hour. Here is the method:
Male, Hartley guinea pigs are obtained from Charles River Labs at a body weight of 350-400 grams. Compounds are prepared at a volume of [1-2 mg/ml] in 1% methocellulose for oral dosing. Animals are separated into groups of five (5). Each assay includes a control group dosed with vehicle. Each group of animals is dosed with either vehicle or compound by oral gavage. Animals are allowed to rest for one, three, or six hours after dosing. Control animals are allowed to rest for three hours. At the appropriate times, the animals are anesthetized with Urethane at 1.5 g/kg, ip. Blood is drawn into a heparinized syringe via cardiac puncture. Blood (0.5 ml) is aliquoted into separately-labeled 1.5 ml eppendorf tubes. Each sample is loaded with 5 μl of [15 mM] Arachidonic Acid, and placed in a 37° C. water bath for five minutes. After five minutes, the blood is stimulated with 5 μl of [5 mM] A23187 (Calcium Ionophore) and retained in the water bath for an additional 30 minutes. After the thirty minutes, the blood samples are removed from the water bath and centrifuged at 14,000 rpm for 2 minutes. Plasma is diluted to EIA buffer and an EIA is performed following manufacturer instructions (Cayman Chemical Co., Ann Arbor, Mich., USA). The results (Table 3) show the percent inhibition of 5-lipoxygenase by selected compounds at multiple time points post oral dosing. 50% inhibition or greater is considered significant.

For experiment [2], the target named is T3, human 5-lipoxygenase enzyme (Homo sapiens, UniProt P09917).
T3 construct: endogenous in cells; host or cells: human whole blood (leukocytes) stimulated with A23187
T3 sequence (P09917 1-674): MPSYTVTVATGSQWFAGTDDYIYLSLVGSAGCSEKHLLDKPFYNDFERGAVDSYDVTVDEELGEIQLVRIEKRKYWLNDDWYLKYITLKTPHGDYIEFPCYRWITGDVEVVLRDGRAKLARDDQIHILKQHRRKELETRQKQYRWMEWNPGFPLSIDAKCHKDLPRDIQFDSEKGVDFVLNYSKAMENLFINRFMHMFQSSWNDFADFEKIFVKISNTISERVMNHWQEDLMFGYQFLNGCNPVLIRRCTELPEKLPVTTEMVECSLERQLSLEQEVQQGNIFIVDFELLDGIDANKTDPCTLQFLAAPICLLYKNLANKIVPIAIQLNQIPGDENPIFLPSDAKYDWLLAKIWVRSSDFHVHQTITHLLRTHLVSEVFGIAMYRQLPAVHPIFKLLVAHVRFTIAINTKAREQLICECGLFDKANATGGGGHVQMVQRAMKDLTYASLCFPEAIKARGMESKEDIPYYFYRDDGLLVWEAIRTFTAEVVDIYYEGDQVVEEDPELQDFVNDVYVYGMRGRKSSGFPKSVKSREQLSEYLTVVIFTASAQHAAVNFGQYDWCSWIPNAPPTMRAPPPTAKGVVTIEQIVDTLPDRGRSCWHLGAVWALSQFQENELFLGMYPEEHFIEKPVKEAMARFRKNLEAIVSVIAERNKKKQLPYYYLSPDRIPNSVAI
The experiment is described as follows: Inhibition of LTB4 production in human whole blood. In kind it is cell-based. As to conditions: human whole blood, calcium ionophore A23187 50 μM, LTB4 by EIA; read-out: HWB IC50. As for the experimental part:
This assay examines the ability of a compound to inhibit leukotriene B4 production from human blood stimulated with calcium ionophore. As this production of leukotriene B4 is mediated via the activation of the 5-lipoxygenase enzyme, this assay is predictive of a compound's ability to inhibit the human 5-lipoxygenase enzyme.
The procedure for the assay is as follows. Blood is drawn from normal human volunteers into tubes containing heparin. 1 ml of the heparinized blood is pipetted into a 1.5 ml polypropylene tube. To this sample is added either different concentrations of the test compound (5 μl) dissolved in DMSO or 5 μl of DMSO as a vehicle control. These samples are incubated in a water bath, at 37° C. for 15 min. 5 μl of the calcium ionophore A23187 (at a final concentration of 50 μM) is then added to each sample, which is vortexed and placed back in the water bath for 30 min. The samples are then centrifuged at 2500 rpm for 10 min. at 4° C. 50 μl of the supernatant is transferred into pre-cooled Eppendorf tubes containing 950 μl of enzyme immunoassay (EIA) buffer. A commercially available EIA kit (Cayman Chemical Co., Ann Arbor, Mich., USA) is used to subsequently measure the LTB4 production in the samples. The LTB4 levels produced in the vehicle control sample is then compared to those in which the test compound has been added. From this a percent inhibition of LTB4 production by each concentration of test compound is calculated and the IC50 for inhibition of LTB4 production for each test compound is determined.

T1 sequence (P35367 whole entry): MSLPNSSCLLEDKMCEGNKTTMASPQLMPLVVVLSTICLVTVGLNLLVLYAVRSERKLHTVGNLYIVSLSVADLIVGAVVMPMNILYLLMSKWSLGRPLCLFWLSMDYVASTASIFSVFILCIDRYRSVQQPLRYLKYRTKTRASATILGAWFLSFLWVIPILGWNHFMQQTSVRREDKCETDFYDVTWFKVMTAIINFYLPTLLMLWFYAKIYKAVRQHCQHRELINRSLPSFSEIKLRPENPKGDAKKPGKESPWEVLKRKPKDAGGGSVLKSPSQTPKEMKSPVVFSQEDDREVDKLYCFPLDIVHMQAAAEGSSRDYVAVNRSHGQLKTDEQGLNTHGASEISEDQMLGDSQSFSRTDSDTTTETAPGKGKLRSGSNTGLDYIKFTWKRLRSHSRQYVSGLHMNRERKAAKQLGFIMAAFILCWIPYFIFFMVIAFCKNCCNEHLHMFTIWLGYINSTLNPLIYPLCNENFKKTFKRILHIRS
Description for human cloned H1 receptor: CHO-K1 cells expressing the human cloned H1 receptor are grown to confluence in tissue culture dishes. Cells are harvested using D-PBS buffer (JRH Biosciences), kept at 4° C., centrifuging to pellet cells (4° C., 500 g, 10 min). The final cell pellet is homogenized and resuspended using Tris/sucrose buffer (20 mM Tris, 250 mM sucrose, pH 7.4 at 4° C.). Aliquots of the membrane preparation are stored at −70° C.
On the day of assay, the membrane preparation is thawed and centrifuged (TLA100.3 rotor, 4° C., 15 min, 23,000 rpm). The pellet is resuspended in Tris/sucrose buffer initially and then diluted further as necessary using assay buffer A (50 mM Na/KPO4, 2 mM MgCl2, 0.5% (w/v) BSA, pH 7.5).
For the binding assay, the membrane preparation, test compound and ^3H-pyrilamine (2 nM final) in buffer A with 1% (v/v) DMSO final are incubated in a 96-well polypropylene plate for 3 hours at 37° C. Non-specific binding is determined in the presence of 10 μM pyrilamine. A 96-well harvester (Packard) is used to harvest the 96-well plate onto a GF/B filter plate pre-treated with 0.1% (v/v) PEI. The plate is counted in a Packard Topcounter after adding Microscint 20 (Packard) scintillation fluid. The Ki for each compound at the histamine H1 receptor is then calculated from these counts.

On to `NC(=O)N(O)Cc1ccc(OCCN2CCN([C@H](c3ccccc3)c3ccc(Cl)cc3)CC2)cc1` [Compound 1, N-{[4-(2-{4-[(1R) (4-chlorophenyl)phenylmethyl]piperazinyl}ethoxy)phenyl]methyl} amino-N-hydroxyamide], for which the Ki at human cloned H1 receptor is 24 nM. Also, the IC50 (usually the concentration needed to halve the response being measured) against 15-lipoxygenase turned out to be 1300 nM; in experiment [2], 1520 nM. For the same compound, in experiment [1], the inhibition in vivo (as a rule, the change of the read-out against control, counted positive when it falls) at 5 mg/kg worked out at 56%. Besides, the “% inhibition of 5-lipoxygenase” value in the experiment with 5-lipoxygenase turned out to be 62%.
